Measurements from article PMC7497626, “Ruthenium-Mediated ^18F-Fluorination and Preclinical Evaluation of a New CB1 Receptor Imaging Agent [^18F]FPATPP” (ACS Chemical Neuroscience, 2020).
Read-outs that look alike come from different tables or passages of the source.

Experiments:
[1] = Ex vivo biodistribution with [^18F]4; assay type: in vivo, mouse
Procedure: All in vivo animals (n = 6, 2 females) and additional 2 month old mice (n = 11, males, injected radioactivity 7.0 ± 3.0 MBq; injected mass 160 ± 60 ng, 6.2 ± 2.6 μg/kg) were used for ex vivo studies to examine the biodistribution and metabolism of [^18F]4. Thus, the injected dose and injected mass to all the animals used (n = 17) were 5.9 ± 2.8 MBq and 120 ± 70 ng, 4.6 ± 3.0 μg/kg, respectively. After iv injection of [^18F]4, mice were sacrificed in deep anesthesia of 4.0% isoflurane with cardiac puncture at 30 (n = 4), 60 (n = 2), and 120 min (in vivo animals, n = 6 and 2 month old mice n = 5). Organs were immediately dissected, weighed, and measured for ^18F-radioactivity in a 2480 Wizard Gamma Counter (Wallac PerkinElmer, Turku, Finland).
(§1) The specificity of [^18F]4 on mouse cerebral CB1Rs was examined in a 120 min in vivo study, and then, the same mice were used for ex vivo biodistribution and brain autoradiography studies. […] Control mice (n = 3, 1 female) were the given vehicle (90 μL, 10% EtOH in Kleptose β-cyclodextrin). […] Mice were sacrificed 120 min after iv injection of [^18F]4, and the ^18F-radioactivity distribution differences between pretreated and control mice were examined with in vivo PET imaging, ex vivo autoradiography, and 2480 Wizard Gamma Counter, and the data were analyzed as described in the previous sections.

mouse cerebral CB1Rs [2] = molecular target: T1, mouse cerebral CB1Rs (Mus musculus, UniProt P47746); test: Ex vivo brain autoradiography with [^18F]4, region-to-thalamus ratios; assay type: in vivo; settings: 120 min post injection
T1 construct: from tissue
T1 sequence (P47746 whole entry): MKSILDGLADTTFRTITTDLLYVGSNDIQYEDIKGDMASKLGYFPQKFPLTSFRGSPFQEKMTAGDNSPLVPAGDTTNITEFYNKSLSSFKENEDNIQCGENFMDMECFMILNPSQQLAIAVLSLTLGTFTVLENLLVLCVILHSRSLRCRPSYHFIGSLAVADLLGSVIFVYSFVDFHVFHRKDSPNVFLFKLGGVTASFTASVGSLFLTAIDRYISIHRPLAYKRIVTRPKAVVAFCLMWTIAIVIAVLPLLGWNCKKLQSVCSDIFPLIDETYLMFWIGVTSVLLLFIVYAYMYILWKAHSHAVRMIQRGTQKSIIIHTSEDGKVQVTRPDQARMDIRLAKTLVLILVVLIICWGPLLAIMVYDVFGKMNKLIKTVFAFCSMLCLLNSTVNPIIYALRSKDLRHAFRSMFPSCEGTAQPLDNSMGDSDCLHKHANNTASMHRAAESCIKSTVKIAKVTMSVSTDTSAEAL
Procedure: For autoradiography, brains were further frozen and cut into 20 μm coronal cryosections for digital autoradiography, and the slices were exposed on an imaging plate (BAS-TR2025, Fuji Photo Film Co.) for approximately 2 half-lives and scanned with a Fuji BAS5000 phosphorimager (FUJIFILM Life Science, Stamford, Connecticut). Digital autoradiographic images were analyzed for count densities with the Aida 4 program (Raytest Isotopenmessgeräte GmbH, Straubenhardt, Germany). For brain slices, regions of interest (ROIs) were drawn over the parietotemporal cortex, striatum, frontal cortex, hippocampus, cerebellar gray matter, and thalamus. The autoradiography was quantified as ratios of the different ROIs relative to the thalamus, which was used as the reference region.
as §1

mouse cerebral CB1Rs [3] = molecular target: T1, mouse cerebral CB1Rs; test: In vivo dynamic PET/CT imaging with [^18F]4, with and without rimonabant blocking
Procedure: Dynamic PET scans were performed for 5 month old mice with an Inveon Multimodality PET/CT scanner (Siemens Medical Solutions USA, Knoxville, Tennessee). Mice were anesthetized with 2.5% isoflurane/oxygen gas, and body temperature was maintained with a heating pad and a bubble-wrap cover. CT transmission scans were performed to correct for attenuation. PET scans were initiated in parallel with an intravenous (iv) bolus injection of [^18F]4 to the mouse tail vein (4–5 month old, n = 6, 2 females; injected radioactivity 4.0 ± 0.4 MBq; injected mass 56 ± 25 ng, 1.7 ± 0.7 μg/kg).
Dynamic emission scans were acquired for 120 min in 3D list mode, with an energy window of 350–650 keV. Scanning times were 120 min (54 frames 30 × 10 s, 15 × 60 s, 4 × 300 s, 2 × 600 s, 3 × 1200 s). The list mode data were stored in 3D sinograms. Data were reconstructed with OSEM3D/MAP software (2 OSEM3D iterations and 18 MAP iterations). The PET/CT images were preprocessed in Matlab R2017a (The MathWorks, Natick, Massachusetts) with an in-house semiautomated pipeline for preclinical images that uses SPM12 (Wellcome Department of Cognitive Neurology, London, UK) preprocessing functionalities and analysis routines. Images were first cropped to a bounding box containing the heads, and individual PET images were coregistered through a rigid-body transformation to their corresponding CT scan. Subjects were spatially normalized through a two-step registration (a rigid followed by an affine transformation) of each subject’s CT to a template CT that was previously constructed as an average of several subjects and was aligned with an atlas T2-weighted MRI template. The combination of transformations was then applied to the PET images, which were also resampled to a voxel size of 0.2 × 0.2 × 0.2 mm^3 (trilinear interpolation), matching the anatomical atlas dimensions.
Volume of interest (VOI) analysis of the whole brain, neocortex, and hippocampus was performed on each subject by averaging the signal inside a slightly modified version of the Ma et al.[40] atlas delineated VOIs, and data were obtained as standardized uptake values (SUVs). SUVs were calculated as follows: SUV = tissue activity concentration (Bq/mL)/(injected dose (Bq)/body weight (g)); it was assumed that 1 mL of tissue equals 1 g. Tissue activity and dose were decay corrected to the same time point.
as §1

[4] = Stability / shelf life of the formulated tracer towards radiolysis; assay type: physicochemical; settings: studied up to 5 h after the EOS, n = 2
Procedure: For tracer production for preclinical evaluation, larger amounts of initial [^18F]fluoride were used and full purification and formulation processes were performed. For the radiofluorination, the SPE method with a 30 min reaction at 160 °C was utilized (conditions as in bar 2, Figure 2B). Elution efficiency was 93 ± 2% (n = 5). Total RCY was 16.7 ± 5.7% (decay-corrected to end of bombardment, d.c. to EOB, n = 5), molar activity (Am) > 95 GBq/μmol (d.c. to end of synthesis, EOS, n = 1) and radiochemical purity (RCP) 99.9 ± 0.1% at EOS (n = 5). Activity yield was 1.0 ± 0.4 GBq (n = 5) at EOS. Synthesis time was 87 ± 5 min (n = 5). The amount of ruthenium in the formulated product was 7.8 ± 1.8 μg/mL.
For PET tracers for clinical use, a generally acknowledged limit for RCP is 95%. […] Lahdenpohja et al. reported that the RCP of [^18F]FMPEP-d2 at EOS varied between 95.5–100% and was a function of radioactivity concentration, which was 20–200 MBq/mL (n > 150) in a 10% ethanolic solution, and the RCP was declined as a function of time due to radiolytic decomposition.[32] The shelf life of the [^18F]FMPEP-d2 was determined to be 120 min.[32] For [^18F]4 formulated in a similar ethanolic solution, the RCP at EOS was 99.9% when the RAC was 200–450 MBq/mL and the shelf life was determined to be at least 300 min, with no significant development of radioactive impurities. […]

[5] = Radiometabolite analysis with [^18F]4 in plasma and cortex; assay type: in vivo, mouse; settings: 120 min p.i., n = 5
Procedure: The 2 month old animals (n = 11, used only for ex vivo studies) were used for metabolite analysis. Plasma and brain samples were collected at 30 (n = 4), 60 (n = 2), and 120 min (n = 5) p.i. Plasma samples were treated with MeCN and centrifuged to remove the proteins from the solution. Brain tissue samples were treated with the 40/60 (v/v) 1% TFA (aq)/MeCN solution and then centrifuged. The supernatants were applied to HPTLC silica gel 60 RP-18 plates (Art. 1.05914.0001, Merck, Darmstadt, Germany), and the plates were developed in 40/60 (v/v) 1% TFA (aq)/ MeCN. After drying, the TLC plates were exposed to an imaging plate for approximately 4 h and the imaging plate was scanned with a Fuji Analyzer BAS5000. The amount of [^18F]4 and its radioactive metabolites were analyzed with the Aida 4 program, and the curves were fitted with GraphPad Prism 6.0 (GraphPad Software, San Diego, California) using a double exponential decay equation.

[6] = Ex vivo biodistribution with [^18F]FMPEP-d2; assay type: in vivo, mouse
Procedure: After iv injection of [^18F]FMPEP-d2 to the mouse tail vein, the mice were sacrificed at the following time points: 30 min (3–4 month old, n = 3, males; injected radioactivity 1.3 ± 0.3 MBq; injected mass 1.5 ± 0.5 ng), 60 min (3–4 months old, n = 4, males; injected radioactivity 1.2 ± 0.8 MBq; injected mass 1.3 ± 1.0 ng), and 120 min (1.5–6 month old, n = 12, 5 females; injected radioactivity 2.6 ± 0.8 MBq; injected mass 3.1 ± 1.1 ng). Mice were sacrificed in deep anesthesia of 4.0% isoflurane with cardiac puncture. Organs were operated in the similar manner as in the biodistribution study with [^18F]4.

CB1R [7] = settings: cited from earlier work
[8] = set-up: method as in PMID 32374481; settings: 10% ethanolic solution, radiolytic decomposition; cited from earlier work
[9] = set-up: method as in PMID 29909177; settings: 180 min p.i.; cited from earlier work
CB1R [10] = test system: CB1R; set-up: method as in PMID 29909177; settings: mice, cited from earlier work
CB1R [11] = test system: CB1R; set-up: method as in doi:10.1016/B978-0-12-417041-4.00002-3; settings: cited from earlier work
CB1R [12] = test system: CB1R; set-up: method as in PMID 22699528; settings: cited from earlier work
[13] = 2 mg/kg rimonabant iv 10 min before tracer, 120 min after injection

**Q.** Which results are given for `C[C@@H](N[C@@H]1C[C@H](c2cccc([18F])c2)N(c2ccc(C(F)(F)F)cc2)C1=O)c1ccccc1` [[^18F]4, (3R,5R)-5-(3-[^18F]fluorophenyl)-3-(((R)-1-phenylethyl)amino)-1-(4-(trifluoromethyl)phenyl)pyrrolidin-2-one]?
**A.** Cortex uptake ([1]; 30 min p.i.): 11.5 ± 3.7 %ID/g; Liver uptake ([1]; 30 min p.i.): 12.1 ± 0.7 %ID/g; Whole brain uptake ([1]; 30 min p.i.): 9.8 ± 3.2 %ID/g; Bone uptake (skull bone, parietal bone) ([1]; 120 min p.i.): 0.4 ± 0.1 %ID/g; Cortex uptake ([1]; 120 min p.i.): 5.1 ± 1.17 % ID/g; Liver uptake ([1]; 120 min p.i.): 8.2 ± 1.6 %ID/g; Whole brain uptake ([1]; 120 min p.i.): 4.9 ± 0.9 %ID/g; Cortex uptake in rimonabant treated mice ([1]; 120 min p.i., 2 mg/kg rimonabant pretreatment): 1.8 ± 0.2 %ID/g; Region-to-thalamus ratios in mice pretreated with rimonabant (mouse cerebral CB1Rs [2]; 2 mg/kg rimonabant pretreatment): ~1; Ratio cortex and cerebellar gray matter to thalamus (mouse cerebral CB1Rs [2]; without blocking): 3.7; Ratio frontal cortex to thalamus (mouse cerebral CB1Rs [2]; without blocking): 2.5; Ratio globus pallidus to thalamus (mouse cerebral CB1Rs [2]; without blocking): 4.9; Ratio parietotemporal cortex to thalamus (mouse cerebral CB1Rs [2]; without blocking): 2.3; Ratio striatum to thalamus (mouse cerebral CB1Rs [2]; without blocking): 2.8; Ratio whole hippocampus to thalamus (mouse cerebral CB1Rs [2]; without blocking): 2.6; Reduction of binding by rimonabant pretreatment, hippocampus (mouse cerebral CB1Rs [3]; [13]): 62%; Reduction of binding by rimonabant pretreatment, neocortex (mouse cerebral CB1Rs [3]; [13]): 59%; Reduction of binding by rimonabant pretreatment, whole brain (mouse cerebral CB1Rs [3]; [13]): 58%; Washout (mouse cerebral CB1Rs [3]; wild-type mice): washout phase began immediately after the peak uptake; SUV at 120 min p.i. (after washout) (mouse cerebral CB1Rs [3]; wild-type mice, 120 min p.i.): 1.3; Peak standardized uptake value (SUV), hippocampus (mouse cerebral CB1Rs [3]; wild-type mice, baseline): 2.14; Peak standardized uptake value (SUV), neocortex (mouse cerebral CB1Rs [3]; wild-type mice, baseline): 1.80; Peak standardized uptake value (SUV), whole brain (mouse cerebral CB1Rs [3]; wild-type mice, baseline): 1.92; Time of maximum tracer uptake after injection (mouse cerebral CB1Rs [3]; wild-type mice, brain PET): 30 min; Stability of the formulated tracer after EOS [4]: no significant decomposition was observed; Residual tracer in plasma, of the total ^18F-radioactivity [5]: approximately 21.3 ± 3.5%; Residual tracer in the cortex, of the total ^18F-radioactivity [5]: 75.0 ± 4.3%

**Q.** For `C[C@@H](N[C@@H]1C[C@H](c2cccc(OC[18F])c2)N(c2ccc(C(F)(F)F)cc2)C1=O)c1ccccc1` [[^18F]FMPEP-d2, (3R,5R)-5-(3-([^18F]fluoromethoxy)phenyl)-3-(((R)-1-phenylethyl)amino)-1-(4-(trifluoromethyl)phenyl)pyrrolidin-2-one], which “Whole brain ^18F-radioactivity uptake” value ([6]; 30 min p.i., healthy mice) is on record?
**A.** 5.6 ± 1.3 %ID/g

**Q.** What about the “Skull bone (parietal bone) radioactivity uptake” value ([6]; 120 min p.i., healthy mice) of the same compound?
**A.** 2.7 ± 0.5 %ID/g

**Q.** What about the “Defluorination compared to [^18F]4” value ([6]; at 120 min, from skull bone uptake) of the same compound?
**A.** over 6 fold

**Q.** And the Washout (CB1R [7]; human studies)?
**A.** slow washout

**Q.** What about the Shelf life [8] of the same compound?
**A.** 120 min

**Q.** And the “Amount of residual tracer” value [9]?
**A.** 86%

**Q.** What about the Washout (CB1R [10]; up to 90 min p.i.) of the same compound?
**A.** essentially no washout was observed

**Q.** What about the “Time of maximum tracer uptake” value (CB1R [10]) of the same compound?
**A.** 30 min

**Q.** What about the “Whole brain SUV” value (CB1R [10]) of the same compound?
**A.** 1.5

**Q.** And the “CB1R vs CB2R selectivity” value (CB1R [11])?
**A.** 3580

**Q.** And the Kb (CB1R [11]; for CB1R, read-out: In vitro potency (Kb))?
**A.** 0.187 nM

**Q.** For `Cc1ccc(OC(C)(C)C(=O)N[C@@H](C)[C@@H](Cc2ccc(OCC[18F])cc2)c2cccc(C#N)c2)nc1` [[^18F]MK-9470, N-{(1S,2S)-2-(3-cyanophenyl)-3-[4-(2-[^18F]fluoroethoxy)phenyl]-1-methylpropyl}-2-methyl-2-[(5-methylpyridin-2-yl)oxy]propanamide], which “Time of maximum tracer uptake post injection” value (CB1R [12]; rat) is on record?
**A.** 300 min

**Q.** What about the Washout (CB1R [12]; rats, even after 600 min) of the same compound?
**A.** no washout was observed

**Q.** What about the Washout (CB1R [7]; human, even after 6 h) of the same compound?
**A.** no washout was observed
